Source: patent publication US11168058B2, “Manufacture of a crystalline pharmaceutical product” (ORION CORPORATION, priority 2017, dated 2021)

Columns and labels:
Format in all cases: physicochemical
[1] = Particle size distribution by laser light diffraction (Beckman Coulter LS13320, dry powder); details: for Volume particle size, Dv10 / Volume particle size, Dv50 / Volume particle size, Dv90: before/after milling
Description: The particle size distribution of crystalline particles of compound (I) can be analyzed by laser light diffraction, for example using Beckman Coulter LS13320 laser diffraction particle size analyzer equipped with Tornado Dry Powder System using air as dispersion medium with measurement pressure 24″H2O±2″H2O, sample amount 10 ml, system controlled target 5% for obscuration and applying Fraunhofer optical model.
The parameters considered are the volumetric diameters in μm of the 10th, 50th and 90th percentiles of the particles, expressed as Dv10, Dv50 and Dv90 respectively, which are determined by assuming that the particles have a geometric shape equivalent to a sphere.
The particle size distribution of the crystalline rounded particles of compound (I) prepared according to the present invention was determined by laser light diffraction. The determination was carried out by using Beckman Coulter LS13320 laser diffraction particle size analyzer equipped with Tornado Dry Powder System using air as dispersion medium with measurement pressure 24″H2O±2″H2O, sample amount 10 ml, system controlled target 5% for obscuration and applying Fraunhofer optical model. According to the analysis, Dv10 value of the particles is 359 μm, Dv50 is 632 μm and Dv90 is 925 μm.
(§1) The specific surface area (SSA) and particle size distribution (PSD) were determined for two batches (A and B) of crystalline rounded particles of compound (I) prepared according to the present invention. The particles of the two batches were then milled followed by the determination of SSA and PSD.

[2] = Specific surface area (SSA) by three-point nitrogen adsorption (BET), TriStar 3000; details: for SSA: Table 1, batch A; for SSA / Specific surface area: crystalline rounded particles before/after milling; for Specific surface area: Table 2, batch B
Description: The specific surface area (SSA) of crystalline particles of compound (I) can be analyzed using the three-point nitrogen adsorption technique based on the Brunauer, Emmett and Teller (BET) theory, for example using TriStar 3000 automated gas adsorption analyzer, (Micromeritics, Inc.). The samples are suitably vacuum dried for 20 hours at 40° C. The volumetric method can be used at the relative pressure range of 0.1-0.3 P/P0.
as §1
The specific surface area was measured using the three-point nitrogen adsorption technique based on the Brunauer, Emmett and Teller (BET) theory using TriStar 3000 automated gas adsorption analyzer (Micromeritics, Inc.). The samples were vacuum dried for 20 hours in 40° C. The volumetric method was applied at the relative pressure range 0.1-0.3 P/P0.

[3] = Solubility in water (statement)
[4] = Example 4, crystalline rounded particles, FIG. 1

Compound	Volume particle size, Dv10 ([1]; Table 1, batch A)	Volume particle size, Dv50 ([1]; Table 1, batch A)	Volume particle size, Dv90 ([1]; Table 1, batch A)	SSA [2]	Volume particle size, Dv10 ([1]; Table 2, batch B)	Volume particle size, Dv50 ([1]; Table 2, batch B)	Volume particle size, Dv90 ([1]; Table 2, batch B)	Specific surface area [2]	further results
CC(O)c1cc(C(=O)N[C@@H](C)Cn2ccc(-c3ccc(C#N)c(Cl)c3)n2)n[nH]1 (stereo partly drawn) [A (milled)]	2 μm	36 μm	218 μm	14 m^2/g					
CC(O)c1cc(C(=O)N[C@@H](C)Cn2ccc(-c3ccc(C#N)c(Cl)c3)n2)n[nH]1 (stereo partly drawn) [A (unmilled)]	171 μm	407 μm	625 μm	13 m^2/g					
CC(O)c1cc(C(=O)N[C@@H](C)Cn2ccc(-c3ccc(C#N)c(Cl)c3)n2)n[nH]1 (stereo partly drawn) [B (milled)]					3 μm	96 μm	292 μm	13 m^2/g	
CC(O)c1cc(C(=O)N[C@@H](C)Cn2ccc(-c3ccc(C#N)c(Cl)c3)n2)n[nH]1 (stereo partly drawn) [B (unmilled)]					176 μm	389 μm	826 μm	12 m^2/g	
CC(O)c1cc(C(=O)N[C@@H](C)Cn2ccc(-c3ccc(C#N)c(Cl)c3)n2)n[nH]1 (stereo partly drawn) [compound (I), N—((S)-1-(3-(3-chloro-4-cyanophenyl)-1H-pyrazol-1-yl)-propan-2-yl)-5-(1-hydroxyethyl)-1H-pyrazole-3-carboxamide]									Dv10 [1, 4]: 359 μm; Dv50 [1, 4]: 632 μm; Dv90 [1, 4]: 925 μm; Change of specific surface area (SSA) on milling to reduced particle size ([2]; batches A and B, milled vs unmilled): did not significantly change; Solubility in water [3]: poorly soluble in water
